From the NIST ThermoML archive (doi:10.1016/j.jct.2008.04.008)
Values joined by “and” are separate entries in the source; they are usually repeats but may differ in a detail not shown here. Equal values may be shown once.

Assays:
[1] = Liquid
[2] = mn = molality of the nth substance listed, in mol/kg; settings: Liquid; for speed of sound: Pulse-echo method

CO [methanol]
[1]
Settings	mass density
283.15 K	800.575 kg/m3 [middle of 4 runs]
288.15 K	795.888 kg/m3 [middle of 4 runs]
293.15 K	791.194 kg/m3 and 791.243 kg/m3 and 791.184 kg/m3
298.15 K	786.534 kg/m3 and 786.475 kg/m3 and 786.485 kg/m3
303.15 K	781.758 kg/m3 [middle of 4 runs]
308.15 K	777.058 kg/m3 and 776.997 kg/m3 and 777.007 kg/m3
313.15 K	772.28 kg/m3 and 772.219 kg/m3 and 772.229 kg/m3

Settings	speed of sound [m/s]
[1], 298.15 K, 101.33 kPa, Pulse-echo method	1102.4

[Na+].c1ccc([B-](c2ccccc2)(c2ccccc2)c2ccccc2)cc1 [sodium tetraphenylboron] + CO
[2]
Settings	mass density, 283.15 K [kg/m3]	mass density, 288.15 K [kg/m3]	mass density, 293.15 K [kg/m3]	mass density, 298.15 K [kg/m3]	mass density, 303.15 K [kg/m3]	mass density, 308.15 K [kg/m3]	mass density, 313.15 K [kg/m3]	speed of sound, 298.15 K [m/s]
m1 = 0.02864	803.855	799.183	794.505	789.813	785.107	780.377	775.618	–
m1 = 0.03742	804.851	800.185	795.511	790.825	786.118	781.392	776.646	–
m1 = 0.04715	805.936	801.274	796.607	791.928	787.23	782.507	–	–
m1 = 0.05653	806.979	802.323	797.659	792.985	788.298	783.585	778.847	–
m1 = 0.06567	807.991	803.338	798.679	794.015	789.33	784.622	779.888	1114.1
m1 = 0.07566	809.099	804.455	799.8	795.14	790.46	785.759	781.031	1115.7
m1 = 0.09526	811.246	806.611	801.967	797.318	792.652	787.962	783.246	1119
m1 = 0.1146	813.35	808.726	804.095	799.453	794.791	790.107	785.409	1122.4
m1 = 0.1339	815.434	810.82	806.2	801.569	796.921	792.253	787.56	1125.7
m1 = 0.1529	817.425	812.819	808.212	803.59	798.952	794.294	789.61	1128.3
m1 = 0.173	819.579	814.984	810.383	805.772	801.145	796.5	791.829	1131.7
m1 = 0.1931	821.677	817.092	812.503	807.899	803.28	798.648	793.987	1135.5

CO [methanol] + [Br-].c1ccc([P+](c2ccccc2)(c2ccccc2)c2ccccc2)cc1
[2], m2 = 0
Settings	mass density [kg/m3]
283.15 K	800.567
288.15 K	795.88
293.15 K	791.184
298.15 K	786.475
303.15 K	781.748
308.15 K	776.997
313.15 K	772.219

CO [methanol] + [Br-].[Na+]
[2], m2 = 0
Settings	mass density [kg/m3]
283.15 K	800.625
288.15 K	795.934
293.15 K	791.243
298.15 K	786.534
303.15 K	781.808
308.15 K	777.058
313.15 K	772.28

[Br-].c1ccc([P+](c2ccccc2)(c2ccccc2)c2ccccc2)cc1 [tetraphenylphosphorane bromide] + CO
[2]
Settings	mass density, 283.15 K [kg/m3]	mass density, 288.15 K [kg/m3]	mass density, 293.15 K [kg/m3]	mass density, 298.15 K [kg/m3]	mass density, 303.15 K [kg/m3]	mass density, 308.15 K [kg/m3]	mass density, 313.15 K [kg/m3]	speed of sound, 298.15 K [m/s]
m1 = 0.0261	804.518	799.837	795.15	790.45	785.734	780.996	776.229	1106.5
m1 = 0.03452	805.776	801.095	796.408	791.716	787.003	782.267	777.504	1107.7
m1 = 0.04277	807.01	802.333	797.652	792.957	788.242	783.515	778.757	1109.1
m1 = 0.05089	808.208	803.532	798.856	794.167	789.459	784.728	779.972	1110.1
m1 = 0.05974	–	–	–	–	–	–	–	1111.4
m1 = 0.06826	810.754	806.084	801.412	796.727	792.025	787.301	782.553	1112.8
m1 = 0.08592	813.321	808.661	803.994	799.314	794.618	789.901	785.158	1115.3
m1 = 0.1039	815.894	811.236	806.575	801.901	797.21	792.499	787.763	1117.8
m1 = 0.1212	818.357	813.704	809.048	804.378	799.693	794.987	790.256	1119.9
m1 = 0.1384	820.799	816.147	811.492	806.831	802.152	797.452	792.728	1122.4
m1 = 0.1565	823.304	818.656	814.011	809.353	804.679	799.985	795.267	1124.7
m1 = 0.1747	825.843	821.2	816.556	811.905	807.237	802.548	797.837	1127

CO [methanol] + [Na+].[O-][Cl+3]([O-])([O-])[O-]
[2], m2 = 0
Settings	mass density [kg/m3]
283.15 K	800.568
288.15 K	795.879
293.15 K	791.184
298.15 K	786.475
303.15 K	781.746
308.15 K	776.997
313.15 K	772.219

CO [methanol] + [Na+].c1ccc([B-](c2ccccc2)(c2ccccc2)c2ccccc2)cc1
[2], m2 = 0
Settings	mass density [kg/m3]
283.15 K	800.575
288.15 K	795.888
293.15 K	791.194
298.15 K	786.485
303.15 K	781.758
308.15 K	777.007
313.15 K	772.229

[Br-].[Na+] [sodium bromide] + CO
[2]
Settings	mass density, 283.15 K [kg/m3]	mass density, 288.15 K [kg/m3]	mass density, 293.15 K [kg/m3]	mass density, 298.15 K [kg/m3]	mass density, 303.15 K [kg/m3]	mass density, 308.15 K [kg/m3]	mass density, 313.15 K [kg/m3]	speed of sound, 298.15 K [m/s]
m1 = 0.06477	805.613	800.933	796.252	791.558	786.848	782.114	777.354	1106.1
m1 = 0.08313	807.039	802.363	797.683	792.99	788.28	783.548	778.794	1107.1
m1 = 0.1039	808.613	803.939	799.259	794.566	789.865	785.138	780.385	1107.7
m1 = 0.1241	810.154	805.482	800.807	796.119	791.41	–	–	1108.7
m1 = 0.1439	811.667	806.995	802.323	797.64	792.938	788.218	783.471	1109.1
m1 = 0.1639	813.155	808.489	803.818	799.135	794.436	789.716	784.971	–
m1 = 0.2071	816.441	811.772	807.109	802.43	797.736	793.019	788.281	1111.8
m1 = 0.2491	819.583	814.916	810.253	805.577	800.887	796.174	791.44	1113.2
m1 = 0.2915	822.759	818.104	813.441	808.767	804.078	799.369	794.64	1114.9
m1 = 0.3318	825.782	821.118	816.459	811.79	807.103	802.396	797.671	1116.1
m1 = 0.3735	828.905	824.245	819.585	814.919	810.236	805.533	800.808	1117.6
m1 = 0.4167	832.098	827.443	822.783	818.116	813.434	808.735	804.019	1119.2
